Test results published in patent US9125915B2, “Antitumor agent” (Mitsubishi Tanabe Pharma Corporation, priority 2007, dated 2015).
Like-named read-outs stand apart in the source and are kept apart here.

Experiments:
[1] = test system: MV4-11; assay: Growth suppressive activity test against cancer cells (WST-8), MV4-11; format: cell-based, human
Experimental: (§1) Using RPMI 1640 medium (manufactured by SIGMA) supplemented with 10% fetal bovine serum, human promyelocytic leukemia-derived cell line HL-60, human acute lymphoblastic leukemia-derived cell line MOLT4, human Burkitt's lymphoma-derived cell line Daudi, and human multiple myeloma-derived cell line RPMI-8226 were respectively cultured at 37° C., 5% CO2. In addition, using ISKOV medium (manufactured by SIGMA) supplemented with 10% fetal bovine serum, human chronic myeloid leukemia-derived cell line MV4-11 was cultured at 37° C., 5% CO2. Moreover, using DMEM/F-12 medium (manufactured by SIGMA) supplemented with 10% fetal bovine serum, human lung cancer cell-derived cell line EBC-1, human hepatocellular cancer-derived cell line Kim-1, human colorectal cancer-derived cell line HCT-116, human prostate cancer-derived cell line PC-3, human ovarian cancer-derived cell line A2780, and human osteosarcoma-derived cell line Saos2 were respectively cultured at 37° C., 5% CO2. These cells were plated on a 96 well plate, and cultured for 1 day. Thereto was added a compound diluted with the medium to a final concentration of 0.0003-10 μm (final DMSO concentration, 0.4%). After culture for 3 more days, WST-8 (0.16 mg/mL) was added to the culture medium and the cells were cultured for 2 hr. The absorbance at 650 nm was subtracted from the absorbance at 450 nm. The growth suppressive activity was shown by a decrease rate of the absorbance of the compound addition group to that of the compound non-addition group, and GI50 value was determined from a dose-reaction curve plotting a decrease rate of the absorbance obtained by changing the compound concentration and the compound concentrations.

[2] = molecular target: BRD4 (Homo sapiens (Human), UniProt O60885); assay: Binding inhibitory test of acetylated histone H4 and BRD4 (TR-FRET); details: CHO cell lysate with Flag-BRD4, biotin-labeled acetylated histone H4 peptide
Experimental: An expression vector containing cDNA of BRD2, 3 and 4 added with Flag-tag was transfected to CHO cell, and a cell lysate was prepared 24 hr later. Binding of acetylated histone H4 and BRD was confirmed by a Time Resolved Fluorescence Resonance Energy Transfer (TR-FRET) method. To a 384-well white plate (manufactured by Coaster) were added 50 nmol/L biotin-labeled acetylated histone H4 peptide (manufactured by Upstate) and a serially diluted test compound.

[3] = test system: RPMI-8226; assay: Growth suppressive activity test against cancer cells (WST-8), RPMI-8226; format: cell-based; details: Homo sapiens, 72 h, RPMI-8226, multiple myeloma, 3 days culture, read-out: cell proliferation suppressive activity GI50
Experimental: as §1, with “These cells were plated on a 96 well plate, and cultured for 1 day. Thereto was added a compound diluted with the medium to a final concentration of 0.0003-10 μm (final DMSO concentration, 0.4%). After culture for 3 more days, WST-8 (0.16 mg/mL) was added to the culture medium and the cells were cultured for 2 hr.” left out

[4] = test system: HCT-116; assay: Growth suppressive activity test against cancer cells (WST-8), HCT-116; format: cell-based; details: Homo sapiens, 72 h, HCT-116, colorectal cancer, 3 days culture, read-out: cell proliferation suppressive activity GI50
Experimental: as §1, with “These cells were plated on a 96 well plate, and cultured for 1 day. Thereto was added a compound diluted with the medium to a final concentration of 0.0003-10 μm (final DMSO concentration, 0.4%). After culture for 3 more days, WST-8 (0.16 mg/mL) was added to the culture medium and the cells were cultured for 2 hr.” left out

[5] = test system: Kim-1; assay: Growth suppressive activity test against cancer cells (WST-8), Kim-1; format: cell-based; details: Homo sapiens, 72 h, Kim-1, hepatocellular cancer, 3 days culture, read-out: cell proliferation suppressive activity GI50
Experimental: as §1, with “These cells were plated on a 96 well plate, and cultured for 1 day. Thereto was added a compound diluted with the medium to a final concentration of 0.0003-10 μm (final DMSO concentration, 0.4%). After culture for 3 more days, WST-8 (0.16 mg/mL) was added to the culture medium and the cells were cultured for 2 hr.” left out

[6] = test system: PC-3; assay: Growth suppressive activity test against cancer cells (WST-8), PC-3; format: cell-based; details: Homo sapiens, 72 h, PC-3, prostate cancer, 3 days culture, read-out: cell proliferation suppressive activity GI50
Experimental: as §1, with “These cells were plated on a 96 well plate, and cultured for 1 day. Thereto was added a compound diluted with the medium to a final concentration of 0.0003-10 μm (final DMSO concentration, 0.4%). After culture for 3 more days, WST-8 (0.16 mg/mL) was added to the culture medium and the cells were cultured for 2 hr.” left out

[7] = test system: A-2780; assay: Growth suppressive activity test against cancer cells (WST-8), A-2780; format: cell-based; details: Homo sapiens, A2780, 72 h, A-2780, ovarian cancer, 3 days culture, read-out: cell proliferation suppressive activity GI50
Experimental: as §1, with “These cells were plated on a 96 well plate, and cultured for 1 day. Thereto was added a compound diluted with the medium to a final concentration of 0.0003-10 μm (final DMSO concentration, 0.4%). After culture for 3 more days, WST-8 (0.16 mg/mL) was added to the culture medium and the cells were cultured for 2 hr.” left out

[8] = test system: Saos2; assay: Growth suppressive activity test against cancer cells (WST-8), Saos2; format: cell-based; details: Homo sapiens, SAOS-2, 72 h, Saos2, osteosarcoma, 3 days culture, read-out: cell proliferation suppressive activity GI50
Experimental: as §1, with “These cells were plated on a 96 well plate, and cultured for 1 day. Thereto was added a compound diluted with the medium to a final concentration of 0.0003-10 μm (final DMSO concentration, 0.4%). After culture for 3 more days, WST-8 (0.16 mg/mL) was added to the culture medium and the cells were cultured for 2 hr.” left out

[9] = test system: Daudi; assay: Growth suppressive activity test against cancer cells (WST-8), Daudi; format: cell-based; details: Homo sapiens, 72 h, Burkitt's lymphoma, 3 days culture, read-out: cell proliferation suppressive activity GI50
Experimental: as §1, with “These cells were plated on a 96 well plate, and cultured for 1 day. Thereto was added a compound diluted with the medium to a final concentration of 0.0003-10 μm (final DMSO concentration, 0.4%). After culture for 3 more days, WST-8 (0.16 mg/mL) was added to the culture medium and the cells were cultured for 2 hr.” left out

[10] = test system: HL-60; assay: Growth suppressive activity test against cancer cells (WST-8), HL-60; format: cell-based; details: Homo sapiens, 72 h, HL-60, promyelocytic leukemia, 3 days culture, read-out: cell proliferation suppressive activity GI50
Experimental: as §1, with “These cells were plated on a 96 well plate, and cultured for 1 day. Thereto was added a compound diluted with the medium to a final concentration of 0.0003-10 μm (final DMSO concentration, 0.4%). After culture for 3 more days, WST-8 (0.16 mg/mL) was added to the culture medium and the cells were cultured for 2 hr.” left out

[11] = test system: MOLT-4; assay: Growth suppressive activity test against cancer cells (WST-8), MOLT-4; format: cell-based; details: Homo sapiens, 72 h, MOLT-4, acute lymphoblastic leukemia, 3 days culture, read-out: cell proliferation suppressive activity GI50
Experimental: as §1, with “These cells were plated on a 96 well plate, and cultured for 1 day. Thereto was added a compound diluted with the medium to a final concentration of 0.0003-10 μm (final DMSO concentration, 0.4%). After culture for 3 more days, WST-8 (0.16 mg/mL) was added to the culture medium and the cells were cultured for 2 hr.” left out

[12] = test system: EBC-1; assay: Growth suppressive activity test against cancer cells (WST-8), EBC-1; format: cell-based; details: Homo sapiens, 72 h, EBC-1, non-small cell lung cancer, 3 days culture, read-out: cell proliferation suppressive activity GI50
Experimental: as §1, with “These cells were plated on a 96 well plate, and cultured for 1 day. Thereto was added a compound diluted with the medium to a final concentration of 0.0003-10 μm (final DMSO concentration, 0.4%). After culture for 3 more days, WST-8 (0.16 mg/mL) was added to the culture medium and the cells were cultured for 2 hr.” left out

[13] = MV4-11, 3 days culture, read-out: growth suppressive activity on MV4-11 GI50
[14] = Homo sapiens, 72 h, MV4-11, chronic myeloid leukemia, 3 days culture, read-out: cell proliferation suppressive activity GI50
[15] = Homo sapiens, 72 h, MV4-11, 3 days culture, read-out: growth suppressive activity on MV4-11 GI50

Compound	GI50 [1, 13] [nM]	IC50 [2] [nM]	further results
COC(=O)C[C@@H]1N=C(c2ccc(NCc3ccccc3)cc2)c2c(sc(C)c2C)-n2c(C)nnc21 [compound 9]	39	73.6	
COC(=O)C[C@@H]1N=C(c2ccc(Cl)cc2)c2c(sc(C)c2C)-n2c(C)nnc21 [compound 6]	26	18.2	
Cc1sc2c(c1C)C(c1ccc(Cl)cc1)=N[C@@H](CC(=O)Nc1ccc(O)cc1)c1nnc(C)n1-2 [Compound 1, (S)-2-[4-(4-chlorophenyl)-2,3,9-trimethyl-6H-thieno[3,2-f][1,2,4]triazolo[4,3-a][1,4]diazepin-6-yl]-N-(4-hydroxyphenyl)acetamide]			GI50 [3]: 130 nM; GI50 [1, 14]: 60.7 nM; GI50 [4]: 563 nM; GI50 [5]: 569 nM; GI50 [6]: 1030 nM; GI50 [7]: 619 nM; GI50 [8]: 481 nM; GI50 [9]: 611 nM; GI50 [10]: 149 nM; GI50 [11]: 80 nM; GI50 [12]: 491 nM
Cc1sc2c(c1C)C(c1ccc(Cl)cc1)=NC(CC(=O)NCCO)c1nnc(C)n1-2 (stereo not drawn) [compound 14]	42		
Cc1sc2c(c1C)C(c1ccc(Cl)cc1)=NC(CC(=O)Nc1cccnc1)c1nnc(C)n1-2 (stereo not drawn) [compound 12]	30	108	
COC(=O)C[C@@H]1N=C(c2ccc(Nc3ccccc3)cc2)c2c(sc(C)c2C)-n2c(C)nnc21 [compound 8, methyl (S)-{2,3,9-trimethyl-4-(4-phenylaminophenyl)-6H-thieno[3,2-f][1,2,4]triazolo[4,3-a][1,4]diazepin-6-yl}acetate]			GI50 [1, 15]: 9 nM
COC(=O)C[C@@H]1N=C(c2ccc(Cl)cc2)c2c(sc(Cl)c2C)-n2c(C)nnc21 [compound 5]	73	54.2	
COC(=O)C[C@@H]1N=C(c2ccc(-c3cccc(C#N)c3)cc2)c2c(sc(C)c2C)-n2c(C)nnc21 [Compound 2, methyl (S)-{4-(3′-cyanobiphenyl-4-yl)-2,3,9-trimethyl-6H-thieno[3,2-f][1,2,4]triazolo[4,3-a][1,4]diazepin-6-yl}acetate]		121	GI50 [3]: 69.4 nM; GI50 [1, 15]: 19 nM; GI50 [1, 14]: 19 nM; GI50 [4]: 356 nM; GI50 [5]: 104 nM; GI50 [6]: 199 nM; GI50 [7]: 130 nM; GI50 [8]: 269 nM; GI50 [9]: 67.4 nM; GI50 [10]: 7 nM; GI50 [11]: 106 nM; GI50 [12]: 207 nM
CCOC(=O)C[C@@H]1N=C(c2ccc(N(C)c3ccc(F)cc3)cc2)c2c(sc(C)c2C)-n2c(C)nnc21 [compound 11]	95	225	
COc1ncccc1NC(=O)C[C@@H]1N=C(c2ccc(Cl)cc2)c2c(sc(C)c2C)-n2c(C)nnc21 [compound 18]	48	147	
COC(=O)C[C@@H]1N=C(c2ccc(-c3ccc(OC)cc3)cc2)c2c(sc(CO)c2C)-n2c(C)nnc21 [compound 7]	55	113	
Cc1sc2c(c1C)C(c1ccc(Cl)cc1)=NC(CC(=O)Nc1ccc(N)cc1)c1nnc(C)n1-2 (stereo not drawn) [compound 15]	34	120	
COc1ccc(NC(=O)C[C@@H]2N=C(c3ccc(Cl)cc3)c3c(sc(C)c3C)-n3c(C)nnc32)cn1 [compound 16]	28	116	
COC(=O)C[C@@H]1N=C(c2ccc(NC(=O)CCc3ccccc3)cc2)c2c(sc(C)c2C)-n2c(C)nnc21 [compound 10, methyl (S)-{2,3,9-trimethyl-4-[4-(3-phenylpropionylamino)phenyl]-6H-thieno[3,2-f][1,2,4]triazolo[4,3-a][1,4]diazepin-6-yl}acetate]		47.1	GI50 [1, 15]: 7 nM
CCOC(=O)C[C@@H]1N=C(c2ccc(Nc3cccnc3)cc2)c2c(sc(C)c2C)-n2c(C)nnc21 [compound 3]	20	54.9	
COC(=O)C[C@@H]1N=C(c2ccc(Nc3c(F)cc(F)cc3F)cc2)c2c(sc(CO)c2C)-n2c(C)nnc21 [compound 4]	95	77.2	
CNC(=O)CC1N=C(c2ccc(Cl)cc2)c2c(sc(C)c2C)-n2c(C)nnc21 (stereo not drawn) [compound 13]	22	17.3	
CONC(=O)C[C@@H]1N=C(c2ccc(Cl)cc2)c2c(sc(C)c2C)-n2c(C)nnc21 [compound 17]	14	12.8	
